For one series, the system named is NCI screen panel. Further details: method as in PMID 9572894. The following applies: read-out: mean panel GI50 (growth inhibitory) value; cited from earlier work.
The test system of series [1] is T24 (bladder) human-derived tumor cell line. In words: MTT reduction antiproliferative assay, T24 bladder cells. It counts as cell-based. The following applies: 48 h incubation, mean of at least three experiments, read-out: EC50 ± SEM T24. The protocol: (§1) The oxygen-substituted diaryl ketones 3–23 were evaluated for their in vitro antiproliferative activity on a panel of four cell lines, including non-tumor fibroblasts (Balb/3T3) and three human-derived tumor cell lines, namely DU-145 (prostate), T24 (bladder) and MCF7 (breast), using the conventional microculture tetrazolium reduction assay.
(§2) These values were calculated from their effects on MTT reduction in three cancer cell lines and Balb/3T3 non transformed mouse fibroblasts as a function of their concentration during 48 h of incubation. All three cancer cell lines were similarly sensitive to these compounds. […] The biological activity differences of compounds 12 and 22 with respect to their analogues could be attributed to the 3,4,5-trimethoxy substitution on the A-phenyl ring. According to literature precedents, the 3,4,5-trimethoxyphenyl ring is considered essential for the antitubulin activity of a broad variety of antimitotic compounds [36, 38, 39, 40, 41, 42, 43, 44, 45]. […] In this context, only compound 22 have a good mean selectivity index (2.45).
(§3) Human cancer cell lines (T24, DU-145, MCF7) were cultured in high-glucose Dulbecco's modified Eagle medium (Gibco, Grand Island, NY, USA) supplemented with 10% foetal calf serum, penicillin (100 U/mL), and streptomycin (100 μg/mL). Balb/3T3 cells (normal mouse fibroblasts) were cultured in the same medium, except that the foetal calf serum was replaced by 10% newborn calf serum. All cultures were kept at 37 °C in 95% air/5% CO2 at 100% humidity. Phosphate-buffered saline (PBS) was purchased from Gibco. Cells were incubated at the indicated times at 37 °C with or without hydroquinones at various concentrations.
(§4) The cytotoxicity of the bis aryl ketones was assessed by following the reduction of MTT (3-(4,5-dimethylthiazolyl-2)-2,5-diphenyltetrazolium bromide) to formazan blue. Briefly, cells were seeded into 96-well plates at a density of 10,000 cells/well for 24 h and then incubated for 48 h with or without the compounds. Cells were then washed twice with warm PBS and incubated with MTT (0.5 mg/mL) for 2 h at 37 °C. Incubation medium was thereafter discarded and the blue formazan crystals were solubilized by adding 100 μL DMSO/well. The colour solution was subsequently read at 550 nm. Results are expressed as % of MTT reduction compared to untreated control conditions. The calculation of EC50 values was performed by using GraphPad Prism software (San Diego, CA, USA).
(In general: Tetrazolium dyes change colour on reduction, which living cells bring about.)

The subject of series [2] is Balb/3T3 non-tumor fibroblasts. In words: MTT reduction assay, non-tumor fibroblasts. The class given is cell-based. Particulars: Mus musculus, 48 h incubation, mean of at least three experiments, read-out: EC50 ± SEM BALB/3T3. The protocol:
as §1, §2, §3, §4

Series [3] deals with DU-145 (prostate) human-derived tumor cell line. Briefly: MTT reduction antiproliferative assay, DU-145 prostate cells. The following applies: 48 h incubation, mean of at least three experiments, read-out: EC50 ± SEM DU-145. The class given is cell-based. The protocol: as §1, §2, §3, §4
The subject of series [4] is Balb/3T3 fibroblasts vs T24, DU-145 and MCF7 tumor cells. Briefly: Mean selective index, fibroblasts versus tumor cells. The class given is cell-based. Particulars: EC50 values fibroblasts/EC50 values tumor cells. As for the experimental part: These values were calculated from their effects on MTT reduction in three cancer cell lines and Balb/3T3 non transformed mouse fibroblasts as a function of their concentration during 48 h of incubation.

Series [5] has as its system MCF7 (breast) human-derived tumor cell line. In words: MTT reduction antiproliferative assay, MCF7 breast cells. It counts as cell-based. The following applies: 48 h incubation, mean of at least three experiments, read-out: EC50 ± SEM MCF-7. The protocol:
as §1, §2, §3, §4

What is called GI50 is the concentration at which growth is held to half of that of the control. As to `COc1ccc(C(=O)c2cc(OC)c(OC)c(OC)c2)cc1O` [phenstatin], the GI50 in the series with NCI screen panel is 0.0601 µM.

One may read the melting point as the temperature, or range, at which the solid turns liquid. On to `COc1cc(C(=O)c2cc(O)c3ccccc3c2O)cc(OC)c1OC` [compound 22, (1,4-Dihydroxynaphthalen-2-yl)(3',4',5'-trimethoxyphenyl)methanone], for which the melting point was in the range of 189 to 191 °C. Further, in series [1], the EC50 is 13.5 ± 1.9 µM. Moreover, in series [2], the EC50 was found to be 25.1 ± 3.9 µM. The EC50 in series [3] is 5.9 ± 0.8 µM. Besides, in series [4], the “MSI: Mean Selective Index” value amounted to 2.45. Further, in series [5], the EC50 was 20.2 ± 4.5 µM.

`COc1ccc(OC)c(C(=O)c2cc(O)ccc2O)c1` [compound 9, (2,5-Dihydroxyphenyl)(2',5'-dimethoxyphenyl)methanone]: the melting point fell in the range of 135 to 136 °C. In series [1], the EC50 is 150 ± 18.4 µM. Moreover, the EC50 in series [2] amounted to 43.7 ± 7.6 µM. Also, in series [3], the EC50 worked out at 130 ± 12.5 µM. Moreover, the “MSI: Mean Selective Index” value in series [4] turned out to be 0.29. For the same compound, in series [5], the EC50 came to 164 ± 13.8 µM.

The compound `COc1cc(C(=O)c2cc(O)ccc2O)ccc1O` [compound 11, (2,5-Dihydroxyphenyl)(4'-hydroxy-3'-methoxyphenyl)methanone] displayed a melting point of 221 to 222 °C. For the same compound, in series [1], the EC50 is 154 ± 14.5 µM. The EC50 in series [2] amounted to 78 ± 9.3 µM. For the same compound, the EC50 in series [3] came out at 168 ± 15.9 µM. Moreover, the “MSI: Mean Selective Index” value in series [4] was determined as 0.47. Further, the EC50 in series [5] was 177 ± 19.4 µM.

In turn, `COc1cc(C(=O)c2cc(O)ccc2O)cc(OC)c1OC` [compound 12, (2,5-Dihydroxyphenyl)(3',4',5'-trimethoxyphenyl)methanone] registered a melting point of 68 to 70 °C. Besides, the EC50 in series [1] is 3.6 ± 1.4 µM. Further, the EC50 in series [2] stood at 1.5 ± 0.4 µM. Further, the EC50 in series [3] amounted to 1.2 ± 0.6 µM. In addition, the “MSI: Mean Selective Index” value in series [4] is listed as 0.57. In addition, in series [5], the EC50 is 53.6 ± 6.7 µM.

Compound `Cc1ccc(C(=O)c2cc(O)ccc2O)cc1` [compound 6, (2,5-Dihydroxyphenyl)(4'-methylphenyl)methanone] returned a melting point of 135 to 136 °C. Further, the EC50 in series [1] was 209 ± 19.5 µM. Besides, in series [2], the EC50 came out at 78.3 ± 6.4 µM. Further, the EC50 in series [3] is 101 ± 9.5 µM. In series [4], the “MSI: Mean Selective Index” value was 0.57. In series [5], the EC50 stood at 142 ± 15.3 µM.

Source of the values: article PMC6270201, “Eco-Friendly Synthesis and Antiproliferative Evaluation of Some Oxygen Substituted Diaryl Ketones” (Molecules, 2013).
